Test results taken from patent US20250123282A1, “METHODS FOR EVALUATION AND TREATMENT OF TYROSINE KINASE INHIBITOR (TKI)-RESISTANT ACUTE MYELOID LEUKEMIA” (LOMA LINDA UNIVERSITY, priority 2021, published 2025).

Tested on: MV4-11 cells
Assay: FACS of TKI-treated MV4-11 cells in vitro (viable blasts, Ki67, pBAD)
Type: cell-based, human
Settings: 3 days after one dose of 80 nM TKI; vs non-treatment controls
Protocol: The AML cells were analyzed at different time points after exposure to TKI (3 days, 10 days, 20 days, and 28 days). […] After 3 days, FACS of the surface markers and intracellular proteins, including CD14, CD33, CD44, and Ki67, were performed. FIGS. 1A-1E depicts therapeutic effect of different TKIs on MV4-11 and MOLM-14 cells in vitro (N=6). […] The circles indicate the group of viable blasts located in a FACS plot and green arrows indicate the dying tendency of blasts which will become positive for viability dye during the next few days. FIGS. 1C and 1D are graphical representations of the cumulative FACS percentage data of viable MV4-11 and MOLM-14 cells. *P<0.05. […]
Flow Cytometry (FACS). […] About 1×10^4˜10^6 cells in 100 μl FACS buffer (PBS containing 1% FBS and 0.05% sodium azide) were stained with various fluorescence-conjugated antibodies specific for the desired cell surface proteins at 4° C. for 30 min. The surface-stained cells were then fixed and permeabilized using the appropriate reagents (e.g. the BD Pharmingen Cytofix/Cytoperm buffer) and stained with different fluorescence-conjugated antibodies specific for the desired intracellular proteins at 4° C. for 2 hours in the permeabilizing buffer (e.g. the BD Perm/Wash buffer). […] Finally, the cells were washed twice in the permeabilizing buffer and twice in the FACS buffer before being analyzed on the BD FACSAria II. […]

For CC(C)(C)c1cc(NC(=O)Nc2ccc(-c3cn4c(n3)sc3cc(OCCN5CCOCC5)ccc34)cc2)no1 [QUIZ, Quizartinib], the “viable MV4-11 blasts (FACS)” value was “more effective”.
